One test deals with T1, CDK2/CycE (Homo sapiens, UniProt P24941).
T1 construct: GST; purchased ProQinase GmbH (Freiburg, Germany); host or cells: insect cells (Sf9)
As to the kind of experiment: CDK2/CycE kinase assay (TR-FRET, 10 μM ATP). In kind it is biochemical. The settings on record: Method 2 (2a). In short, it runs like this: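 GST-CDK2/GST-CycE from Sf9 cells preincubated 15 min with compound, then reacted 25 min at 22 °C with 10 μM ATP and 0.75 μM biotinylated peptide (final) in pH 8.0 Tris buffer. EDTA stop, then TR-FRET detection of phosphorylated substrate with anti-RB(pSer807/pSer811) antibody, read as 665/622 nm ratio.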

Test [1] deals with HeLa-MaTu-ADR, multidrug-resistant human cervical carcinoma cells. Description: Proliferation assay, HeLa-MaTu-ADR (crystal violet). In kind it is cell-based. The following applies: 4 days, read-out: Inhibition of HeLa-MaTu-ADR cell proliferation IC50. The method in brief: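 Adherent lines (HeLa, NCI-H460 at 3,000 cells/well; HeLa-MaTu-ADR at 5,000) treated 4 days with 0.001-10 μM compound, 0.5% DMSO, 10% FCS; crystal violet at 595 nm, normalised to zero-point plate and untreated cells, IC50 by 4-parameter fit. MOLM-13 (5,000 cells/well) exposed 72 h, viability by Cell Titre-Glo.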

The subject of test [2] is Caco-2, human colorectal carcinoma cells. As to the kind of experiment: Proliferation assay, Caco-2 (crystal violet). In kind it is cell-based. The following applies: Caco-2, 4 days, read-out: Inhibition of Caco-2 cell proliferation IC50.
Test [3] concerns B16F10, mouse melanoma cells. Description: Proliferation assay, B16F10 (crystal violet). The settings on record: B16F10, 4 days, read-out: Inhibition of B16F10 cell proliferation IC50. In kind it is cell-based.
Test [4] deals with A2780, human ovarian carcinoma cells. As to the kind of experiment: Proliferation assay, A2780 (crystal violet). In kind it is cell-based. The following applies: A2780, 4 days, read-out: Inhibition of A2780 cell proliferation IC50. As for the experimental part:
(§1) Cultivated tumour cells (HeLa, human cervical tumour cells, ATCC CCL-2; NCI-H460, human non-small cell lung carcinoma cells, ATCC HTB-177; A2780, human ovarian carcinoma cells, ECACC #93112519; DU 145, hormone-independent human prostate carcinoma cells, ATCC HTB-81; HeLa-MaTu-ADR, multidrug-resistant human cervical carcinoma cells, EPO-GmbH Berlin; Caco-2, human colorectal carcinoma cells, ATCC HTB-37; B16F10, mouse melanoma cells, ATCC CRL-6475) were plated at a density of 5,000 cells/well (DU145, HeLa-MaTu-ADR), 3,000 cells/well (NCI-H460, HeLa), 2,500 cells/well (A2780), 1,500 cells/well (Caco-2), or 1,000 cells/well (B16F10) in a 96-well multititer plate in 200 μL of their respective growth medium supplemented 10% fetal calf serum. After 24 hours, the cells of one plate (zero-point plate) were stained with crystal violet (see below), while the medium of the other plates was replaced by fresh culture medium (200 μl), to which the test substances were added in various concentrations (0 μM, as well as in the range of 0.001-10 μM; the final concentration of the solvent dimethyl sulfoxide was 0.5%). The cells were incubated for 4 days in the presence of test substances. Cell proliferation was determined by staining the cells with crystal violet: the cells were fixed by adding 20 μl/measuring point of an 11% glutaric aldehyde solution for 15 minutes at room temperature. After three washing cycles of the fixed cells with water, the plates were dried at room temperature. The cells were stained by adding 100 μl/measuring point of a 0.1% crystal violet solution (pH 3.0). After three washing cycles of the stained cells with water, the plates were dried at room temperature. The dye was dissolved by adding 100 μl/measuring point of a 10% acetic acid solution. The extinction was determined by photometry at a wavelength of 595 nm. The change of cell number, in percent, was calculated by normalization of the measured values to the extinction values of the zero-point plate (=0%) and the extinction of the untreated (0 μm) cells (=100%). The IC50 values (inhibitory concentration at 50% of maximal effect) were determined by means of a 4 parameter fit. Non-adherent MOLM-13 human acute myeloid leukemia cells (DSMZ ACC 554) were seeded at a density of 5,000 cells/well in a 96-well multititer plate in 100 μL of growth medium supplemented 10% fetal calf serum. After 24 hours, cell viability of one plate (zero-point plate) was determined with the Cell Titre-Glo Luminescent Cell Viability Assay (Promega), while 50 μL of test compound containing medium was added to the wells of the other plates (final concentrations in the range of 0.001-10 μM and DMSO controls; the final concentration of the solvent dimethyl sulfoxide was 0.5%). Cell viability was assessed after 72-hour exposure with the Cell Titre-Glo Luminescent Cell Viability Assay (Promega).

Test [5] concerns MOLM-13 human acute myeloid leukemia cells. As to the kind of experiment: Proliferation assay, MOLM-13 (Cell Titre-Glo). In kind it is cell-based. The settings on record: MOLM-13, 72-hour exposure, read-out: Inhibition of MOLM-13 cell proliferation IC50. As for the experimental part: as §1

Read-outs that look alike come from different tables or passages of the source.

For the compound `COc1cc(F)ccc1-c1cc(Nc2cc(CS(C)(=N)=O)cc(C)n2)ncc1F` (single isomer, unassigned; (+)) [Example 32, (+)-5-Fluoro-4-(4-fluoro-2-methoxyphenyl)-N-{6-methyl-4-[(S-methylsulfonimidoyl)methyl]pyridin-2-yl}pyridin-2-amine], the IC50 came to 120 nM at CDK2/CycE; 53 nM in test [1] (Homo sapiens, 96 h); 40 nM in test [2] (Homo sapiens, Caco-2, 96 h); 98 nM in test [3] (Mus musculus, B16-F10, 96 h); 10 nM in test [4] (Homo sapiens, A2780, 96 h); 17 nM in test [5] (Homo sapiens, MOLM-13, 72 h).

On to `COc1cc(F)ccc1-c1cc(Nc2cc(CS(C)(=N)=O)ccn2)ncc1F` (single isomer, unassigned; (-)) [Example 3, (−)-5-Fluoro-4-(4-fluoro-2-methoxyphenyl)-N-{4-[(S-methylsulfonimidoyl)methyl]pyridin-2-yl}pyridin-2-amine], for which the IC50 came to 240 nM on CDK2/CycE; 37 nM in test [1]; 58 nM in test [2]; 310 nM in test [3]; 52 nM in test [4]; 40 nM in test [5].

`COc1cc(F)ccc1-c1cc(Nc2cc(CS(C)(=N)=O)cc(C(F)(F)F)n2)ncc1F` (single isomer, unassigned; (-)) [Example 23, (−)-5-Fluoro-4-(4-fluoro-2-methoxyphenyl)-N-{4-[(S-methylsulfonimidoyl)methyl]-6-(trifluoromethyl)pyridin-2-yl}pyridin-2-amine]: the IC50 stood at 22 nM at CDK2/CycE; 30 nM in test [1]; 34 nM in test [2]; 47 nM in test [3]; 11 nM in test [4]; 10 nM in test [5].

The values are drawn from patent US9650340B2, “5-fluoro-N-(pyridin-2-yl)pyridin-2-amine derivatives containing a sulfoximine group” (BAYER PHARMA AKTIENGESELLSCHAFT, priority 2012, dated 2017).
